According to patent US6552014B2, “Methods of inhibiting platelet activation with selective serotonin reuptake inhibitors” (HeartDrug Research, L.L.C., priority 1999, dated 2003):

What was measured:
Type in all cases: cell-based, human
Vitronectin receptor = experiment: Flow cytometry of platelet antigen expression, platelet rich plasma; conditions: for Vitronectin (mean) log fluorescence intensity / Vitronectin (peak) log fluorescence intensity: PRP
Source text: For ex vivo assessment of the SSRIs effect on a PAM, a level of a PAM can be assessed by flow cytometry by first obtaining a sample that comprises platelets and then contacting the sample with a platelet activation agonist, such as phorbol myristate acetate (PMA), ADP (adenosine diphosphate), thrombin, collagen, and/or TRAP (thrombin receptor activating peptide), under conditions suitable for activation of platelets in the sample. The sample is in contact with the agonist preferably for a period of time effective to maximally activate the platelets. […] Then the formation of the complex in the sample is determined (detected or measured). […] The blood-ACD mixture was centrifuged at 1000 r.p.m. for 10 minutes at room temperature. […] The PRP was then centrifuged at 3000 r.p.m. for 10 minutes. […] All cells were then divided into ten plastic capped tubes. Nine portions of washed platelets were incubated with 5 μfluorescein isothiocyanate (FITC)-conjugated antibodies in the dark at +4 °C for 30 minutes, and one part remained unstained and served as a negative control. […] The instrument was calibrated daily with fluorescence beads (CaliBRITE; Becton Dickinson) and measured FITC-conjugated fluorescence intensity. All parameters were obtained using four decade logarithmic amplification. The data was collected and stored in list mode, and then analyzed using CELLQuest® (version 1.2.2) software. Procedures are described in detail in (Gurbel, P. […] Serebruany, V. […] The levels of various PAMs were assess from samples of human volunteers.

GP IIb/IIIa = experiment: Whole blood flow cytometry; conditions: for GP IIb/IIIa (mean) log fluorescence intensity / GP IIb/IIIa (peak) log fluorescence intensity: Whole Blood; for GPIIb/IIIa expression (FIG. 1), in words: sertraline 18.1, 44.7 or 85.3 ng/ml, NDMS 31.1, 64.1, 143.0 ng/ml; for GPIIb/IIIa expression (FIG. 7), in words: whole blood, post-coronary angioplasty patient, increasing concentrations
Source text: For ex vivo assessment of the SSRIs effect on a PAM, a level of a PAM can be assessed by flow cytometry by first obtaining a sample that comprises platelets and then contacting the sample with a platelet activation agonist, such as phorbol myristate acetate (PMA), ADP (adenosine diphosphate), thrombin, collagen, and/or TRAP (thrombin receptor activating peptide), under conditions suitable for activation of platelets in the sample. The sample is in contact with the agonist preferably for a period of time effective to maximally activate the platelets. […] Then one contacts or stains the samples with a composition that comprises an anti-PAM antibody e.g., having a fluorescent label, preferably in an amount in excess of that required to bind the PAM expressed on the platelets, under conditions suitable for the formation of labeled complexes between the anti-PAM antibody and activated platelets. Then the formation of the complex in the sample is determined (detected or measured).
Four cc of blood was collected in a tube, containing 2 cc of acid-citrate-dextrose (ACD) (7.3 g citric acid, 22.0 g sodium citrate×2H2O and 24.5 glucose in a total amount of 1000 mL distilled water) and mixed well. The buffer, TBS (10 mM Tris, 0.15 M NaCl, pH 7.4) and the following fluorescein isothiocyanate (FITC) conjugated monoclonal antibodies (PharMingen, San Diego, Calif. USA, and DAKO, Calif., USA) were removed from a refrigerator and allowed to warm at room temperature (RT): CD41 (IIb/IIIa), CD31 (PECAM-1), CD62p (P-selectin), CD51/61 (Vitronectin receptor). Six amber tubes (1.25 ml) were obtained and marked. One Eppendorf tube (1.5 ml) was labeled with “Dill WB”, Patient ID #, Initial and Date. The amber tubes and Eppendorf tube were placed in the rack. […] of TBS buffer was pipetted to the labeled Eppendorf tube. The patient's whole blood tube was inverted gently twice to mix. 50 μl of whole blood was pipetted to the “Dill WB” labeled Eppendorf tube. The Eppendorf tube was capped and the diluted whole blood was mixed by inverting the Eppendorf tube gently two times 50 μl of diluted whole blood was pipetted to each amber tube. 5 μl of appropriate antibody was pipetted to the bottom of the corresponding amber tube. The tubes were covered with aluminum foil and incubated at 4° C. for 30 minutes. After incubation, 400 μl of 2% buffered paraformaldehyde was added. To prepare 2% Paraformaldehyde:Dilute 1 part 10% paraformaldehyde with 4 parts TBS. This solution was stored at 4° C. for up to one week. The amber tubes were closed with a lid tightly and stored in a refrigerator at 4° C. until the flow cytometric analysis. The samples are analyzed on a Becton Dickinson FACScan flow cytometer. The instrument is set up to measure forward light scatter (FSC), and FITC fluorescence. All parameters are collected using four decade logarithmic amplification.
The data in table 1 was obtained using the methods described herein, and in particular, in Examples 1 and 2. The levels of various PAMs were assess from samples of human volunteers. […] Baseline levels of the PAMs were also obtained (without exposure to sertraline or NDMS).

platelets = experiment: Platelet aggregation in platelet rich plasma (ADP or collagen); conditions: for platelet aggregation in PRP (FIGS. 5 and 6), in words: post-coronary angioplasty patient, activated with ADP or collagen
Method: Trisodium citrate (3.8%) and whole blood is immediately mixed in a 1:9 ratio, and then centrifuged at 1200 g for 2.5 minutes, to obtain platelet-rich plasma (PRP), which is kept at room temperature for use within 1 hour for platelet aggregation studies. Platelet count is determined in each PRP sample with a Coulter Counter ZM (Coulter Co., Hialeah, Fla.). Platelet numbers are adjusted to 3.50×10^8/ml for aggregation with homologous platelet-poor plasma. PRP and whole blood aggregation tests are performed simultaneously. Whole blood is diluted 1.1 with the 0.5 ml PBS, and then swirled gently to mix . The cuvette with the stirring bar is placed in the incubation well and allowed to warm to 37° C. for 5 minutes. Then the sample are transferred to the assay well. An electrode is placed in the sample cuvette. Platelet aggregation is stimulated with 5 μM ADP, 1 μg/ml collagen, and 0.75 mM arachidonic acid. All agonists are obtained from Chronolog Corporation (Hawertown, Pa.). Platelet aggregation studies are performed using a Chrono-Log Whole Blood Lumi-Aggregometer (model 560 -Ca). Platelet aggregability are expressed as the percentage of light transmittance change from baseline using platelet-poor plasma as a reference at the end of recording time for plasma samples, or as a change in electrical impedance for whole blood samples. Aggregation curves are recorded for 4 minutes and analyzed according to internationally established standards using Aggrolinkg® software.

[1] = healthy volunteers, sertraline 18.1 ng/ml
[2] = healthy volunteers, sertraline 44.7 ng/ml
[3] = healthy volunteers, sertraline 85.3 ng/ml
[4] = post-angioplasty patient on aspirin, sertraline 18.1 ng/ml
[5] = post-angioplasty patient on aspirin, sertraline 44.7 ng/ml
[6] = post-angioplasty patient on aspirin, sertraline 85.3 ng/ml
[7] = whole blood from a healthy volunteer
[8] = healthy volunteers, desmethylsertraline 31.1 ng/ml
[9] = healthy volunteers, desmethylsertraline 64.2 ng/ml
[10] = healthy volunteers, desmethylsertraline 143 ng/ml
[11] = post-angioplasty patient on aspirin, desmethylsertraline 31.1 ng/ml
[12] = post-angioplasty patient on aspirin, desmethylsertraline 64.2 ng/ml
[13] = post-angioplasty patient on aspirin, desmethylsertraline 143 ng/ml

SMILES: CN[C@H]1CC[C@@H](c2ccc(Cl)c(Cl)c2)c2ccccc21 [sertraline]
- Vitronectin (mean) log fluorescence intensity (Vitronectin receptor; [1]): 810
- Vitronectin (mean) log fluorescence intensity (Vitronectin receptor; [2]): 510
- Vitronectin (mean) log fluorescence intensity (Vitronectin receptor; [3]): 667
- Vitronectin (mean) log fluorescence intensity (Vitronectin receptor; [4]): 405
- Vitronectin (mean) log fluorescence intensity (Vitronectin receptor; [5]): 344
- Vitronectin (peak) log fluorescence intensity (Vitronectin receptor; [5]): 393
- Vitronectin (mean) log fluorescence intensity (Vitronectin receptor; [6]): 529
- Vitronectin (peak) log fluorescence intensity (Vitronectin receptor; [6]): 585
- surface expression of vitronectin receptor, in words (Vitronectin receptor; plasma concentration 85.3 ng/ml, equivalent to 200 mg/daily): diminished surface expression
- GP IIb/IIIa (mean) log fluorescence intensity (GP IIb/IIIa; [1]): 479
- GP IIb/IIIa (peak) log fluorescence intensity (GP IIb/IIIa; [1]): 418
- GP IIb/IIIa (mean) log fluorescence intensity (GP IIb/IIIa; [2]): 476
- GP IIb/IIIa (peak) log fluorescence intensity (GP IIb/IIIa; [2]): 437
- GP IIb/IIIa (mean) log fluorescence intensity (GP IIb/IIIa; [3]): 498
- GP IIb/IIIa (peak) log fluorescence intensity (GP IIb/IIIa; [3]): 437
- GP IIb/IIIa (mean) log fluorescence intensity (GP IIb/IIIa; [4]): 252
- GP IIb/IIIa (peak) log fluorescence intensity (GP IIb/IIIa; [4]): 266
- GP IIb/IIIa (mean) log fluorescence intensity (GP IIb/IIIa; [5]): 230
- GP IIb/IIIa (peak) log fluorescence intensity (GP IIb/IIIa; [5]): 244
- GP IIb/IIIa (mean) log fluorescence intensity (GP IIb/IIIa; [6]): 198
- GP IIb/IIIa (peak) log fluorescence intensity (GP IIb/IIIa; [6]): 217
- GPIIb/IIIa expression (FIG. 1), in words (GP IIb/IIIa; [7]): dose dependent decrease in the expression
- GPIIb/IIIa expression (FIG. 7), in words (GP IIb/IIIa): striking decreases in expression
- percent of platelet aggregation (FIGS. 2 and 3), in words (platelets; PRP, healthy volunteer, induced with ADP or collagen, sertraline 18.1, 44.7 or 85.3 ng/ml): decreases with increasing amounts of sertraline
- platelet aggregation in PRP (FIGS. 5 and 6), in words (platelets; PRP): decrease in platelet aggregation
- ADP-, and collagen-induced platelet aggregation in plasma (in vitro), in words (platelets; healthy controls and patients with coronary artery disease, including those on aspirin): Dose-dependent inhibition

SMILES: N[C@H]1CC[C@@H](c2ccc(Cl)c(Cl)c2)c2ccccc21 [Desmethyl sertraline, N-desmethylsertraline]
- Vitronectin (mean) log fluorescence intensity (Vitronectin receptor; [8]): 677
- Vitronectin (peak) log fluorescence intensity (Vitronectin receptor; [8]): 620
- Vitronectin (mean) log fluorescence intensity (Vitronectin receptor; [9]): 623
- Vitronectin (peak) log fluorescence intensity (Vitronectin receptor; [9]): 508
- Vitronectin (mean) log fluorescence intensity (Vitronectin receptor; [10]): 732
- Vitronectin (peak) log fluorescence intensity (Vitronectin receptor; [10]): 670
- Vitronectin (mean) log fluorescence intensity (Vitronectin receptor; [11]): 504
- Vitronectin (peak) log fluorescence intensity (Vitronectin receptor; [11]): 560
- Vitronectin (mean) log fluorescence intensity (Vitronectin receptor; [12]): 380
- Vitronectin (peak) log fluorescence intensity (Vitronectin receptor; [12]): 425
- Vitronectin (mean) log fluorescence intensity (Vitronectin receptor; [13]): 482
- Vitronectin (peak) log fluorescence intensity (Vitronectin receptor; [13]): 544
- GP IIb/IIIa (mean) log fluorescence intensity (GP IIb/IIIa; [8]): 346
- GP IIb/IIIa (peak) log fluorescence intensity (GP IIb/IIIa; [8]): 340
- GP IIb/IIIa (mean) log fluorescence intensity (GP IIb/IIIa; [9]): 403
- GP IIb/IIIa (peak) log fluorescence intensity (GP IIb/IIIa; [9]): 355
- GP IIb/IIIa (mean) log fluorescence intensity (GP IIb/IIIa; [10]): 314
- GP IIb/IIIa (peak) log fluorescence intensity (GP IIb/IIIa; [10]): 264
- GP IIb/IIIa (mean) log fluorescence intensity (GP IIb/IIIa; [11]): 277
- GP IIb/IIIa (peak) log fluorescence intensity (GP IIb/IIIa; [11]): 268
- GP IIb/IIIa (mean) log fluorescence intensity (GP IIb/IIIa; [12]): 219
- GP IIb/IIIa (peak) log fluorescence intensity (GP IIb/IIIa; [12]): 245
- GP IIb/IIIa (mean) log fluorescence intensity (GP IIb/IIIa; [13]): 242
- GP IIb/IIIa (peak) log fluorescence intensity (GP IIb/IIIa; [13]): 232
- GPIIb/IIIa expression, NDMS compared with sertraline (FIG. 1) (GP IIb/IIIa; [7]): more effectively decreased the expression of GPIIb/IIIa
- GPIIb/IIIa expression (FIG. 1), in words (GP IIb/IIIa; [7]): dose dependent decrease in the expression
- GPIIb/IIIa expression (FIG. 7), in words (GP IIb/IIIa): striking decreases in expression
- platelet aggregation in PRP (FIGS. 5 and 6), in words (platelets; PRP): decrease in platelet aggregation
